The melting point is the temperature, or range, at which the solid turns liquid. Compound `COc1cc(N2CCN([C@H](C)c3ccc(OC)c(OC)c3)CC2)ccc1Cl` [compound 4, (R)-1-(4-Chloro-3-Methoxy-Phenyl)-4-[1-(3,4-Dimethoxy-Phenyl)-Ethyl]-Piperazine] yielded a melting point of 172 to 176 °C.

Values taken from US6953801B2, “Melanin concentrating hormone receptor ligands: substituted 1-benzyl-4-aryl piperazine analogues” (Neurogen Corporation, priority 2001, dated 2005).
